Assay results taken from patent US6472213B1, “Shuttle vectors for the introduction of DNA into mycobacteria and utilization of such bacteria as vaccines” (Institut National de la Sante et de la Recherche Medicale …, priority 1994, dated 2002).

What was measured:
[1] = test system: mycobacteria carrying the plasmid pMR001; type: cell-based, M. smegmatis, M. bovis BCG, M. tuberculosis
[2] = test system: pVN2-carrying mycobacteria; type: cell-based, M. smegmatis, M. bovis BCG, M. tuberculosis
[3] = test system: non-transformed control mycobacteria; type: cell-based, M. smegmatis, M. bovis BCG, M. tuberculosis
[4] = test system: Mycobacterium smegmatis carrying plasmid pVN3; experiment: Resistance to arsenic conferred by plasmid pVN3; type: cell-based; conditions: pVN3 in Mycobacterium smegmatis

| Compound | MIC Liquid medium [1] [µg/mL] | MIC Solid medium [1] [µg/mL] | concentration at which still capable of growing [1] [µg/mL] | concentration of complete inhibition of bacterial growth [1] [µg/mL] | MIC Liquid medium [2] [µg/mL] | MIC Solid medium [2] [µg/mL] | concentration up to which growth occurs [2] [µg/mL] | MIC Liquid medium [3] [µg/mL] | MIC Solid medium [3] [µg/mL] | concentration at which considerable susceptibility is shown [3] [µg/mL] | concentration of complete inhibition of bacterial growth (MIC) [3] [µg/mL] | resistance level [4] [mg/L] |
| --- | --- | --- | --- | --- | --- | --- | --- | --- | --- | --- | --- | --- |
| [Cl][Hg][Cl] [HgCl2] | 40 | 160 | 20 | 160 | 40 | 160 | ≤ 40 | 1.25 | 0.15 | 0.15 | 1 | – |
| arsenic nitrate [AsNO3] | – | – | – | – | – | – | – | – | – | – | – | ~10 |
